Laboratory results published in patent publication US20050148042A1, “Hybrid phosphoinositide phospholipids: compositions and uses” (priority 2002, published 2005).

Tests used:
[1] = biological target: T1, GST-PLC δ1-PH domain (Homo sapiens, UniProt P51178); experiment: AlphaScreen competitive binding, biotinylated Pea-PI(4,5)P2 as probe lipid
T1 construct: made in house; host or cells: E. coli
T1 sequence (P51178 21-130 limits assumed): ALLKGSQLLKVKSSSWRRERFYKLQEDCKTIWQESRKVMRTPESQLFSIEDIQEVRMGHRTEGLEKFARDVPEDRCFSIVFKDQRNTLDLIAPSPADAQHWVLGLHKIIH
Procedure: In addition, competitive binding assays were conducted in which the GST-PLC δ1-PH protein was pre-incubated for 30 min with 10 nM to 10 fM of unlabeled diC4 Ptdlns(4,5)P2, Ptdlns(3,4,5)P3, or Pea-PI(4,5)P2 prior to addition of the other reagents, using biotinylated Pea-PI(4,5)P2 as the probe lipid.
These competitive binding experiments were similar to the binding experiment described above except that non biotinylated lipids are added to each reaction to compete with biotinylated Pea-PI(4,5)P2 for binding to PLC-δ 1-PH domain. For example, eight concentrations of PI(3,4,5)P3 diC4, PI(4,5)P2 diC4, and Pea-PI(4,5)P2 were added as competitors to separate wells in addition to 0.2 pmol/well PLC-δ-1-PH domain, 0.4 pmol/well of Pea-PI(4,5)P2, streptavidin donor, and anti-GST acceptor beads; and incubated as previously described. […] This 500 times better affinity of Pea-PI(4,5)P2 for PLC d1-PH domain compared to PI(3,4,5)P3 is fundamental to the development of a robust assay where one detects the specific PIPn product of a kinase or phosphatase in the presence of excess PIPn substrate.

[2] = system: anti-PIP3 antibody; experiment: Antibody binding to lipids covalently coupled to Maleic-Anhydride activated 96-well plate; conditions: 50 pmol per well, absorbance at 450 nm
Procedure: The ability of lipid recognition proteins to specifically recognize and bind to Pea-PIPns was tested by coupling Pea-PIPns (as well as amino PIPs with the same headgroups as controls) to polystyrene microtiter plates. Briefly, 50 pmol per well of amino PI(4,5)P2 (PIP2), amino PI(3,4,5)P3 (PIP3), Pea-PI(4,5)P2 (Pea-PIP2), and Pea-PI(3,4,5)P3 (Pea-PIP3) lipids in 100 μL PBS were coupled via their primary amine functional groups to triplicate wells of a Maleic-Anhydride activated 96-well plate (Pierce, Rockford, Ill.). Underivatized groups were reacted with 200 μL Tris-Glycine-SDS overnight before blocking with 200 μL 0.02% Ovalbumin in TBS. […] Specific binding was subsequently visualized by incubating with anti-mouse-HRP (horseradish peroxidase) secondary antibody (Sigma, St Louis, Mo.), washing as before, then adding tetramethylbenzadine (TMB) developing reagent (Sigma) and reading the absorbance at 450 nm in a plate reader.
Binding specificity of Pea-PIPs was further tested by coupling Pea-PIP2 and Pea-PIP3 (as well as amino PIPs with the same headgroups as controls) to polystyrene microtiter plates. […] Specific binding was subsequently visualized by incubating with anti-mouse-HRP secondary antibody (Sigma, St Louis, Mo.), washing as before, then adding Tetramethylbenzadine (TMB) developing reagent (Sigma) and reading the absorbance at 450 nm in a plate reader.

[3] = biological target: T2, GST-PLC δ1-PH (Homo sapiens, UniProt P51178); experiment: Protein-overlay binding to lipids spotted onto nitrocellulose; conditions: 200 pmol to 6 pmol spotted onto nitrocellulose
T2 construct: made in house; host or cells: E. coli
T2 sequence (P51178 21-130 limits assumed): T1 sequence (P51178 21-130 limits assumed)
Source text: In this Example, immobilized Pea-PIPns are readily and specifically recognized by lipid recognition proteins. According to this Example, six different quantities (from 200 pmol to 6 pmol) of Ptdlns(3,4)P2, Ptdlns(3,5)P2, Ptdlns(4,5)P2, Pea-PI(4,5)P2,Ptdlns(3,4,5)P3; Pea-PI(3,4,5P)3 PI and PE were spotted onto nitrocellulose, and binding of Glutathione S-Transferase (GST)-PLC δ1-PH and GST-General Receptor for Phosphoinositides (Grp1)-PH constructs was examined by a protein-overlay technique (described in Dowler, S., Kular, G., and Alessi, D. R. (2002) Sci STKE 2002, PL6) (recombinant GST tagged PLC δ1-PH and Grp1-PH domain proteins used in this Example were expressed in E. coli then purified using glutathione affinity resin (Amersham Biosciences, Piscataway, N.J.).

[4] = protein pre-incubated 30 min with 10 nM to 10 fM competitor

Row | Compound | IC50 ([1]; 0.2 pmol/well PLC-δ-1-PH domain, 0.4 pmol/well probe lipid, read-out: IC50 value as competitor) | binding to the PH domain as unlabeled competitor [1, 4] | better affinity for PLC d1-PH domain compared to PI(3,4,5)P3 ([1]; ratio of IC50 values) | recognition by anti-PIP3 antibody [2] | recognition by GST-PLC δ1-PH [3] | selectivity for displacement of GST-PLC δ1-PH, relative to di-C4 Ptdlns(3,4,5)P3 [1, 4]
1 | CCCCCCCCCCCCCCCC(=O)O[C@H](COP(=O)(O)OCCN)[C@@H](COP(=O)(O)O[C@@H]1[C@H](O)[C@H](O)[C@@H](OP(=O)(O)O)[C@H](OP(=O)(O)O)[C@H]1O)OC(=O)CCCCCCCCCCCCCCC [Pea-PI(4,5)P2, 1-[(2R,3R)-4-(2-Aminoethoxyphosphoryloxy)-2,3-di-O-palmitoylbutoxyphosphoryloxy]-4,5-myo-bisphosphate] | 140 nM | further increase in binding | 500 times | (but not Pea-PIP2) was recognized by the specific antibody | able to bind the correct protein at lower concentrations than the corresponding diC16 phosphoinositides | 
2 | CCCC(=O)OCC(COP(=O)(O)OC1C(O)C(O)C(OP(=O)(O)O)C(OP(=O)(O)O)C1O)OC(=O)CCC (stereo not drawn) [di-C4 Ptdlns(4,5)P2, reference compound] |  |  |  |  |  | Over 100 fold
